Laboratory results reported in patent US10730885B1, “Coumarin derivatives” (KING SAUD UNIVERSITY, priority 2019, dated 2020).
≈ marks a conversion by molar mass, not a printed value. Entries after “also recorded” stand apart in the source; their conditions may differ. Like-named read-outs stand apart in the source and are kept apart here.

What was measured:
tested microorganisms [1] = test: MIC by two fold serial dilution, summary over the tested microorganisms; format: cell-based
Description: (§1) The newly synthesized compounds were individually tested for their in vitro antimicrobial activity against the standard bacteria strains of American Type Culture Collection (ATCC), namely, Staphylococcus aureus ATCC 29213, Bacillus subtilis ATCC 6633, Bacillus megaterium ATCC 9885 (Gram-positive), Escherichia coli ATCC 2592 and Pseudomonas aeruginosa ATCC 27953 (Gram-negative). In addition, they were microbiologically tested against the locally isolated Saccharomyces cerevisiae (yeast) and the standard strain of Agricultural Research Service Culture Collection (NRRL) of the yeast like pathogenic fungus Candida albicans NRRL Y-477. The primary screening was carried out using the agar well diffusion method using nutrient agar (NA) medium and Sabourand dextrose agar (SDA) medium for pathological tested bacteria and yeast, respectively.
(§2) The bacteriostatic activity of the active compounds (having IZ>16 mm) was then evaluated using the two fold serial dilution technique. Two-fold serial dilutions of the tested compound solutions were prepared using the proper nutrient broth. The final concentration of the solutions were 1000, 500, 250 and 125 μg/ml. The tubes were then inoculated with the test organisms, grown in their suitable broth at 37° C. for 24 hours for tested microorganisms. (1×10^8 CFU/ml for bacteria and 1×10^6 CFU/ml of yeast), each 5 ml received 0.1 ml of the above inoculum and incubated at 37° C. for 24 h. The lowest concentration showing no growth was taken as the minimum inhibitory concentration (MIC).

trypsin = test: Proteinase inhibitory activity (trypsin/casein); format: biochemical; conditions: for % Inhibition of proteinase activity: 250 μg/ml, mean ± SD (n = 3)
Method in brief: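 Trypsin (0.06 mg) in 20 mM Tris-HCl pH 7.4 was preincubated 5 min with test sample (250 μg/ml solution), then 0.8% casein was added for 20 min. The reaction was stopped with perchloric acid, and supernatant absorbance was read at 280 nm after centrifugation. Percent inhibition relative to the uninhibited control was determined in triplicate.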

[2] = DPPH microplate radical scavenging antioxidant assay; format: biochemical; conditions: for IC50: DPPH, 30 min, mean ± SD (n = 3)
Method in brief: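 Compounds, starting at 200 μg/mL in a dilution series, incubated with 0.2 mM methanolic DPPH for 30 min in the dark at 25° C. Absorbance at 515 nm converted to percent antioxidant activity; IC50 from concentration series, triplicate, mean±SD (n=3).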

[3] = test system: formaldehyde-induced paw oedema; test: Formaldehyde-induced rat paw oedema; format: in vivo; conditions: 2.5 mg/kg orally
Method: Testing was performed to determine formaldehyde-induced rat paw oedema (edema). For the formaldehyde-induced rat paw oedema (edema) test, female Wister albino rats (150-175 g) were used for determination of the anti-inflammatory activities. The rats were obtained from the animal house colony of the National Organization for Drug Control and Research (NODCAR), Egypt. The animals were kept in standard plastic cages in an air conditioned room at 22±3° C., 55±5% humidity and supplied with standard laboratory diet and water ad libitum. All animal experimental procedures were carried out according to the Ethics Committee of the National Research Centre, Cairo, Egypt and followed the guidelines of the National Institutes of Health, Guide for Care and Use of Laboratory Animals (1985).
The percentage protection against inflammation was calculated by using following formula:
[formula] where Vc is the mean percentage increase in paw volume in the control and Vd is the mean percentage increase in paw volume after injection of the test compound. Values were expressed as mean±standard error (S.E.). Comparisons between mean values were carried out using two-way analysis of variance (ANOVA), followed by Tukey Kramer multiple comparisons test for all acute toxicity study tests. […] was considered significant. Graph pad prism software (version 6) was used to carry out all statistical tests.

[4] = test system: Candida albicans NRRL Y-477; test: Agar well diffusion, primary antimicrobial screening; format: cell-based; conditions: for zone of inhibition at 10000 µg/mL: Candida albicans, NRRLY477, C. albicans NRRL Y-477, 100 μL of 10 mg/ml in DMSO, 24 h, read-out: Inhibition Diameter Zone CA
Description: as §1
(§3) Antimicrobial tests were carried out by the agar well diffusion method using 100 μL of suspension containing 1×10^8 CFU/mL of pathological tested bacteria and 1×10^6 CFU/ml of yeast spread on NA and SDA, respectively. After the media was cooled and solidified, wells (10 mm in diameter) were made in the solidified agar and loaded with 100 μL of tested compound solution prepared by dissolving 10 mg of the chemical compound in one ml of dimethyl sulfoxide (DMSO). The inculcated plates were then incubated for 24 h at 37° C. for bacteria and yeast. Negative controls were prepared using DMSO employed for dissolving the tested compound. Ciprofloxacin (10 mg/ml) and ketoconazole (10 mg/ml) were used as standard for antibacterial and antifungal activity, respectively. After incubation time, antimicrobial activity was evaluated by measuring the zone of inhibition against the test organisms and compared with that of the standard. Antimicrobial activities were expressed as inhibition diameter zones in millimeters (mm). The experiment was carried out in triplicate and the average zone of inhibition was calculated.

[5] = test system: Saccharomyces cerevisiae (local isolate); test: as above; format: cell-based; conditions: for zone of inhibition at 10000 µg/mL: Saccharomyces cerevisiae, 24 h, read-out: Inhibition Diameter Zone SC
Description: as §1, §3

[6] = test system: Staphylococcus aureus ATCC 29213; test: as above; format: cell-based; conditions: for zone of inhibition at 10000 µg/mL: Staphylococcus aureus, ATCC29213, S. aureus ATCC 29213, 100 μL of 10 mg/ml in DMSO, 24 h, read-out: Inhibition Diameter Zone SA
Description: as §1, §3

[7] = test system: Pseudomonas aeruginosa ATCC 27953; test: MIC by two fold serial dilution technique; format: cell-based; conditions: ATCC27953, P. aeruginosa, read-out: Minimal Inhibitory Concentration (MIC) PA
Description: as §1, §2

[8] = test system: Candida albicans NRRL Y-477; test: MIC by two fold serial dilution technique; format: cell-based; conditions: NRRLY477, C. albicans, read-out: Minimal Inhibitory Concentration (MIC) CA
Description: as §1, §2

[9] = test system: Saccharomyces cerevisiae (local isolate); test: MIC by two fold serial dilution technique; format: cell-based; conditions: read-out: Minimal Inhibitory Concentration (MIC) SC
Description: as §1, §2

[10] = test system: Bacillus megaterium ATCC 9885; test: MIC by two fold serial dilution technique; format: cell-based; conditions: Priestia megaterium, ATCC9885; B. megaterium; read-out: Minimal Inhibitory Concentration (MIC) BM
Description: as §1, §2

[11] = test system: Pseudomonas aeruginosa ATCC 27953; test: Agar well diffusion, primary antimicrobial screening; format: cell-based; conditions: Pseudomonas aeruginosa, ATCC27953; P. aeruginosa ATCC 27953; 100 μL of 10 mg/ml in DMSO, 24 h; read-out: Inhibition Diameter Zone PA
Description: as §1, §3

[12] = test system: Bacillus megaterium ATCC 9885; test: as above; format: cell-based; conditions: Priestia megaterium, ATCC9885; B. megaterium ATCC 9885; 100 μL of 10 mg/ml in DMSO, 24 h; read-out: Inhibition Diameter Zone BM
Description: as §1, §3

[13] = test system: Escherichia coli ATCC 2592; test: as above; format: cell-based; conditions: Escherichia coli, ATCC2592; E. coli ATCC 2592; 100 μL of 10 mg/ml in DMSO, 24 h; read-out: Inhibition Diameter Zone EC
Description: as §1, §3

[14] = test system: Bacillus subtilis ATCC 6633; test: as above; format: cell-based
Description: as §1, §3

[15] = test system: Staphylococcus aureus ATCC 29213; test: MIC by two fold serial dilution technique; format: cell-based; conditions: ATCC29213, S. aureus, read-out: Minimal Inhibitory Concentration (MIC) SA
Description: as §1, §2

tested microorganisms [16] = test: Agar well diffusion, summary over the tested microorganisms; format: cell-based; conditions: against one or more microorganisms
Description: as §1, §3

[17] = S. cerevisiae local isolate, 100 μL of 10 mg/ml in DMSO

SMILES | melting point [°C] | % Inhibition of proteinase activity (trypsin) [%] | IC50 [2] | in vivo anti-inflammatory activity [3] | in vitro anti-proteinase activity compared with aspirin (trypsin) | zone of inhibition at 10000 µg/mL [4] [mm] | MIC [8] [µg/mL] | MIC [9] [µg/mL] | further results
Cc1ccc2oc(=O)c3c(c2c1)OC(N)=C(C#N)C3c1ccc([N+](=O)[O-])cc1 (racemic) [Compound 5a, (±)-2-amino-9-methyl-4-(4-nitrophenyl)-5-oxo-4H,5H-pyrano[3,2-c]chromene-3-carbonitrile] | 259 to 261 | 17.38 ± 1.63 | — ((—): inactive (IC50 > 200 μg/mL)) |  |  |  |  |  | MIC (tested microorganisms [1]; against gram-positive bacteria): 500 to 1000 µg/mL (≈ 1330 to 2660 µM)
Cc1ccc2oc(=O)c3c(c2c1)OC(N)=C(C#N)C3c1ccco1 (racemic) [Compound 5b, (±)-2-amino-4-(furan-2-yl)-9-methyl-5-oxo-4H,5H-pyrano[3,2-c]chromene-3-carbonitrile] | 251 to 253 | 74.68±3.01 | — ((—): inactive (IC50 > 200 μg/mL)) | significant protection against inflammation | more potent |  |  |  | MIC (tested microorganisms [1]; against gram-positive bacteria): 500 to 1000 µg/mL (≈ 1560 to 3120 µM)
Cc1ccc2oc(=O)c3c(c2c1)OC(N)=C(C(N)=O)C3c1ccc([N+](=O)[O-])cc1 (racemic) [Compound 6a, (±)-2-amino-9-methyl-4-(4-nitrophenyl)-5-oxo-4H, 5H-pyrano[3,2-c]chromene-3-carboxamide] | 142 to 144 | 79.72±4.51 | — ((—): inactive (IC50 > 200 μg/mL)) | significant in vivo anti-inflammatory activity; also recorded: significant protection against inflammation | more potent | < 15 |  |  | zone of inhibition at 10000 µg/mL [5]: < 15 mm; zone of inhibition at 10000 µg/mL [6]: < 15 mm
Cc1ccc2oc(=O)c3c(c2c1)OC(N=Cc1ccccc1)=C(C#N)C3c1ccc([N+](=O)[O-])cc1 (racemic) [Compound 8a, (±)-2-(benzylideneamino)-9-methyl-4-(4-nitrophenyl)-5-oxo-4H,5H-pyrano[3,2-c]chromene-3-carbonitrile] | 208 to 209 |  | — ((—): inactive (IC50 > 200 μg/mL)) |  |  |  | 500 (≈ 1080 µM) | 500 (≈ 1080 µM) | MIC (tested microorganisms [1]; against most of the tested microorganisms): 250 to 500 µg/mL (≈ 539 to 1080 µM); MIC [7]: 500 µg/mL (≈ 1080 µM); MIC [10]: 500 µg/mL (≈ 1080 µM)
COc1cc(C=NC2=C(C#N)C(c3ccco3)c3c(c4cc(C)ccc4oc3=O)O2)cc(OC)c1OC (racemic) [Compound 8d, (±)-4-(furan-2-yl)-9-methyl-5-oxo-2-((3,4,5-trimethoxybenzylidene)amino)-4H,5H-pyrano[3,2-c]chromene-3-carbonitrile] | 248 to 250 | 43.4 ± 1.52 | 82.92 ± 3.30 µg/mL (≈ 166 µM) |  | as potent |  | 1000 (≈ 2010 µM) | 1000 (≈ 2010 µM) | zone of inhibition at 10000 µg/mL [11]: < 15 mm; zone of inhibition at 10000 µg/mL [12]: < 15 mm; zone of inhibition at 10000 µg/mL [13]: < 15 mm; zone of inhibition at 10000 µg/mL ([14]; Bacillus subtilis, ATCC6633, B. subtilis ATCC 6633, 100 μL of 10 mg/ml in DMSO, 24 h, read-out: Inhibition Diameter Zone BS): < 15 mm; MIC [15]: 1000 µg/mL (≈ 2010 µM)
Cc1ccc2oc(=O)c3c(c2c1)OC(N=Cc1ccc(Cl)cc1Cl)=C(C#N)C3c1ccc([N+](=O)[O-])cc1 (racemic) [Compound 8e, (±)-2-((2,4-dichlorobenzylidene)amino)-9-methyl-4-(4-nitrophenyl)-5-oxo-4H,5H-pyrano[3,2-c]chromene-3-carbonitrile] | 236 to 238 | 45.78 ± 1.62 | — ((—): inactive (IC50 > 200 μg/mL)) |  | as potent | 20 | 500 (≈ 939 µM) | 500 (≈ 939 µM) | 
O=c1oc2ccc(Cl)cc2c(O)c1S(=O)(=O)Nc1ccc(O)cc1 [Compound 11c, 6-Chloro-4-hydroxy-N-(4-hydroxyphenyl)-2-oxo-2H-chromene-3-sulfonamide] | 250 to 251 |  | 3.87 ± 0.409 µg/mL (≈ 10.5 µM) | significant protection against inflammation | as potent |  |  |  | antimicrobial activity compared with standard antimicrobials (ciprofloxacin and ketoconazole) (tested microorganisms [16]): equal to or higher than the standard antimicrobials; antimicrobial activity compared with ketoconazole ([5]; S. cerevisiae): higher than that of the corresponding control drug; zone of inhibition at 10000 µg/mL [5, 17]: 32 mm; antibacterial activity compared with reference drug ([14]; B. subtilis): comparable antibacterial activities to the standard; antibacterial activity compared with ciprofloxacin ([6]; S. aureus): higher than the control ciprofloxacin; antioxidant activity ([2]; overview): particularly high antioxidant activity
CC(=O)c1ccc(NS(=O)(=O)c2c(O)c3cc(Cl)ccc3oc2=O)cc1 [Compound 11e, N-(4-acetylphenyl)-6-chloro-4-hydroxy-2-oxo-2H-chromene-3-sulfonamide] | 238 to 240 |  | 32.85 ± 1.322 µg/mL (≈ 83.4 µM) |  |  | < 15 |  |  | % inhibition of rat paw oedema ([3]; one hour after induction of inflammation): 9.45%; zone of inhibition at 10000 µg/mL [11]: < 15 mm; antifungal activity compared with reference drug ([4]; C. albicans): higher antifungal activity; zone of inhibition at 10000 µg/mL [5, 17]: < 15 mm; zone of inhibition at 10000 µg/mL [13]: < 15 mm; zone of inhibition at 10000 µg/mL [6]: < 15 mm
